Test results reported in the supplement of paper PMC11061612.

What was measured:
AZD2811 = compound: CCN(CCO)CCCOc1ccc2c(Nc3cc(CC(=O)Nc4cccc(F)c4)[nH]n3)ncnc2c1 [AZD2811]; details: max 1 µM
How it was run: (§1)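 Cancer cell lines were seeded into 1536-well plates in 7.5 μl medium (DMEM/F12 or RPMI, 10% FBS), held 24 hours at 37°C and 5% CO2, and dosed for 72 hours with final DMSO typically 0.2%. Luminescence from CellTiter-Glo 2.0, scaled between blank-well and DMSO-well means, served as viability. The single-agent IC50 was obtained from dose-response fits with a non-linear mixed effects model, each fit being a two-parameter logistic curve.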

SN-38 = compound: CCc1c2c(nc3ccc(O)cc13)-c1cc3c(c(=O)n1C2)COC(=O)[C@]3(O)CC [SN-38]; details: max 0.3 µM
How it was run: as §1

AZD5991 = compound: Cc1c2c(nn1C)CSCc1cc(n(C)n1)CSc1cc(c3ccccc3c1)OCCCc1c(C(=O)O)n(C)c3c-2c(Cl)ccc13 [AZD5991]; details: max 1 µM
How it was run: as §1

Gefitinib = compound: COc1cc2ncnc(Nc3ccc(F)c(Cl)c3)c2cc1OCCCN1CCOCC1 [Gefitinib]; details: max 10 µM
How it was run: as §1

Lapatinib = compound: CS(=O)(=O)CCNCc1ccc(-c2ccc3ncnc(Nc4ccc(OCc5cccc(F)c5)c(Cl)c4)c3c2)o1 [Lapatinib]; details: max 10 µM
How it was run: as §1

AZD5153 = compound: COc1nnc2ccc(N3CCC(c4ccc(OCCN5CCN(C)C(=O)[C@H]5C)cc4)CC3)nn12 [AZD5153]; details: max 1 µM
How it was run: as §1

Carboplatin = compound: C1CC(C1)(C(=O)[O-])C(=O)[O-].N.N.[Pt+2] [Carboplatin]; details: max 10 µM
How it was run: as §1

AZD4320 = compound: CN(CC[C@H](CSC1=CC=CC=C1)NC2=C(C=C(C=C2)S(=O)(=O)NC(=O)C3=CC=C(C=C3)N4CCC(CC4)[C@H](C5=CC=CC=C5C6=CC=C(C=C6)Cl)O)S(=O)(=O)C(F)(F)F)CCO [AZD4320]; details: max 1 µM
How it was run: as §1

[1] = compound: O=C(Nc1ccc2[nH]nc(-c3ccncc3)c2c1)[C@@H]1CCN(CC(=O)N2CCN(c3ccc(-c4ncccn4)cc3)CC2)C1; details: max 5 µM
How it was run: as §1

Etoposide = compound: COc1cc([C@@H]2c3cc4c(cc3[C@@H](O[C@@H]3O[C@@H]5CO[C@@H](C)O[C@H]5[C@H](O)[C@H]3O)[C@H]3COC(=O)[C@H]23)OCO4)cc(OC)c1O [Etoposide]; details: max 10 µM
How it was run: as §1

5-Fluorouracil = compound: O=c1[nH]cc(F)c(=O)[nH]1 [5-Fluorouracil]; details: max 20 µM
How it was run: as §1

Prexasertib = compound: COc1cccc(OCCCN)c1-c1cc(Nc2cnc(C#N)cn2)n[nH]1 [Prexasertib]; details: max 1 µM
How it was run: as §1

Crizotinib = compound: C[C@@H](Oc1cc(-c2cnn(C3CCNCC3)c2)cnc1N)c1c(Cl)ccc(F)c1Cl [Crizotinib]; details: max 10 µM
How it was run: as §1

Paclitaxel = compound: CC(=O)O[C@H]1C(=O)[C@@]2(C)[C@H]([C@H](OC(=O)c3ccccc3)[C@]3(O)C[C@H](OC(=O)[C@H](O)[C@@H](NC(=O)c4ccccc4)c4ccccc4)C(C)=C1C3(C)C)[C@]1(OC(C)=O)CO[C@@H]1C[C@@H]2O [Paclitaxel]; details: max 3 µM
How it was run: as §1

Gemcitabine = compound: Nc1ccn([C@@H]2O[C@H](CO)[C@@H](O)C2(F)F)c(=O)n1 [Gemcitabine]; details: max 0.3 µM
How it was run: as §1

AZD5363 = compound: C1CN(CCC1(C(=O)N[C@@H](CCO)C2=CC=C(C=C2)Cl)N)C3=NC=NC4=C3C=CN4 [AZD5363]; details: max 10 µM
How it was run: as §1

AZD7648 = compound: Cc1cc2ncnn2cc1Nc1ncc2c(n1)n(C1CCOCC1)c(=O)n2C [AZD7648]; details: max 10 µM
How it was run: as §1

Alisertib = compound: COc1cc(Nc2ncc3c(n2)-c2ccc(Cl)cc2C(c2c(F)cccc2OC)=NC3)ccc1C(=O)O [Alisertib]; details: max 10 µM
How it was run: as §1

Selumetinib = compound: Cn1cnc2c(F)c(Nc3ccc(Br)cc3Cl)c(C(=O)NOCCO)cc21 [Selumetinib]; details: max 10 µM
How it was run: as §1

AZD1390 = compound: CC(C)n1c(=O)n(C)c2cnc3cc(F)c(-c4ccc(OCCCN5CCCCC5)nc4)cc3c21 [AZD1390]; details: max 0.3 µM
How it was run: as §1

Savolitinib = compound: C[C@@H](c1ccc2nccn2c1)n1nnc2ncc(-c3cnn(C)c3)nc21 [Savolitinib]; details: max 1 µM
How it was run: as §1

AZD1775 = compound: C=CCn1c(=O)c2cnc(Nc3ccc(N4CCN(C)CC4)cc3)nc2n1-c1cccc(C(C)(C)O)n1 [AZD1775]; details: max 3 µM
How it was run: as §1

Doxorubicin = compound: COc1cccc2c1C(=O)c1c(O)c3c(c(O)c1C2=O)C[C@@](O)(C(=O)CO)C[C@@H]3O[C@H]1C[C@H](N)[C@H](O)[C@H](C)O1 [Doxorubicin]; details: max 1 µM
How it was run: as §1

AZD0156 = compound: CN(C)CCCOc1ccc(-c2ccc3ncc4c(c3c2)n(C2CCOCC2)c(=O)n4C)cn1 [AZD0156]; details: max 3 µM
How it was run: as §1

AZD8186 = compound: C[C@@H](Nc1cc(F)cc(F)c1)c1cc(C(=O)N(C)C)cc2c(=O)cc(N3CCOCC3)oc12 [AZD8186]; details: max 10 µM
How it was run: as §1

Trametinib = compound: CC(=O)Nc1cccc(-n2c(=O)n(C3CC3)c(=O)c3c(Nc4ccc(I)cc4F)n(C)c(=O)c(C)c32)c1 [Trametinib]; details: max 1 µM
How it was run: as §1

SG3199 = compound: CC1=CN2[C@@H](C1)C=NC3=CC(=C(C=C3C2=O)OC)OCCCCCOC4=C(C=C5C(=C4)N=C[C@@H]6CC(=CN6C5=O)C)OC [SG3199]; details: max 0.001 µM
How it was run: as §1

Palbociclib = compound: CC(=O)c1c(C)c2cnc(Nc3ccc(N4CCNCC4)cn3)nc2n(C2CCCC2)c1=O [Palbociclib]; details: max 10 µM
How it was run: as §1

Venetoclax = compound: CC1(C)CCC(CN2CCN(c3ccc(C(=O)NS(=O)(=O)c4ccc(NCC5CCOCC5)c([N+](=O)[O-])c4)c(Oc4cnc5[nH]ccc5c4)c3)CC2)=C(c2ccc(Cl)cc2)C1 [Venetoclax]; details: max 1 µM
How it was run: as §1

Dasatinib = compound: CC1=C(C(=CC=C1)Cl)NC(=O)C2=CN=C(S2)NC3=CC(=NC(=N3)C)N4CCN(CC4)CCO [Dasatinib]; details: max 2 µM
How it was run: as §1

Olaparib = compound: O=C(c1cc(Cc2n[nH]c(=O)c3ccccc23)ccc1F)N1CCN(C(=O)C2CC2)CC1 [Olaparib]; details: max 10 µM
How it was run: as §1

Taselisib = compound: Cc1nc(-c2cn3c(n2)-c2ccc(-c4cnn(C(C)(C)C(N)=O)c4)cc2OCC3)n(C(C)C)n1 [Taselisib]; details: max 10 µM
How it was run: as §1

SRA737 = compound: N#Cc1cnc(Nc2cc(NC[C@H]3CNCCO3)c(C(F)(F)F)cn2)cn1 [SRA737]; details: max 10 µM
How it was run: as §1

AZD6738 = compound: C[C@@H]1COCCN1C2=NC(=NC(=C2)C3(CC3)[S@](=N)(=O)C)C4=C5C=CNC5=NC=C4 [AZD6738]; details: max 10 µM
How it was run: as §1

MK-2206 = compound: NC1(c2ccc(-c3nc4ccn5c(=O)[nH]nc5c4cc3-c3ccccc3)cc2)CCC1 [MK-2206]; details: max 10 µM
How it was run: as §1

Cell Line | IC50, cell viability 72 h (AZD2811) | IC50, cell viability 72 h (SN-38) | IC50, cell viability 72 h (AZD5991) | IC50, cell viability 72 h (Gefitinib) | IC50, cell viability 72 h (Lapatinib) | IC50, cell viability 72 h (AZD5153) | IC50, cell viability 72 h (Carboplatin) | IC50, cell viability 72 h (AZD4320) | IC50, cell viability 72 h [1] | IC50, cell viability 72 h (Etoposide) | IC50, cell viability 72 h (5-Fluorouracil) | IC50, cell viability 72 h (Prexasertib) | IC50, cell viability 72 h (Crizotinib) | IC50, cell viability 72 h (Paclitaxel) | IC50, cell viability 72 h (Gemcitabine) | IC50, cell viability 72 h (AZD5363) | IC50, cell viability 72 h (AZD7648) | IC50, cell viability 72 h (Alisertib) | IC50, cell viability 72 h (Selumetinib) | IC50, cell viability 72 h (AZD1390) | IC50, cell viability 72 h (Savolitinib) | IC50, cell viability 72 h (AZD1775) | IC50, cell viability 72 h (Doxorubicin) | IC50, cell viability 72 h (AZD0156) | IC50, cell viability 72 h (AZD8186) | IC50, cell viability 72 h (Trametinib) | IC50, cell viability 72 h (SG3199) | IC50, cell viability 72 h (Palbociclib) | IC50, cell viability 72 h (Venetoclax) | IC50, cell viability 72 h (Dasatinib) | IC50, cell viability 72 h (Olaparib) | IC50, cell viability 72 h (Taselisib) | IC50, cell viability 72 h (SRA737) | IC50, cell viability 72 h (AZD6738) | IC50, cell viability 72 h (MK-2206)
SJSA-1 (Osteosarcoma) | > 1000 nM | 87.9 nM | > 1000 nM | > 10000 nM | > 10000 nM | 533 nM | > 10000 nM | > 1000 nM | > 5000 nM | > 10000 nM | > 20000 nM | 156 nM | > 10000 nM | 79.9 nM | 82.1 nM | > 10000 nM | > 10000 nM | > 10000 nM | > 10000 nM | > 300 nM | > 1000 nM | > 3000 nM | > 1000 nM | > 3000 nM | > 10000 nM | > 1000 nM | > 1 nM | > 10000 nM | > 1000 nM | > 2000 nM | > 10000 nM | 4810 nM | > 10000 nM | > 10000 nM | > 10000 nM
SK-GT-4 (Esophageal Adenocarcinoma) | > 1000 nM | > 300 nM | > 1000 nM | > 10000 nM | > 10000 nM | > 1000 nM | > 10000 nM | > 1000 nM | 4610 nM | > 10000 nM | > 20000 nM | 70.7 nM | > 10000 nM | 945 nM | > 300 nM | > 10000 nM | > 10000 nM | > 10000 nM | 6050 nM | > 300 nM | > 1000 nM | > 3000 nM | > 1000 nM | > 3000 nM | > 10000 nM | 90.1 nM | > 1 nM | > 10000 nM | > 1000 nM | 1500 nM | > 10000 nM | 911 nM | > 10000 nM | > 10000 nM | > 10000 nM
ST486 (Burkitt's Lymphoma) | 31.9 nM | 80.9 nM | 71 nM | > 10000 nM | > 10000 nM | 64.9 nM | > 10000 nM | 134 nM | 4790 nM | 1180 nM | > 20000 nM | 7.33 nM | 739 nM | 8.5 nM | 15.9 nM | > 10000 nM | > 10000 nM | 40 nM | 8880 nM | > 300 nM | > 1000 nM | 320 nM | 773 nM | > 3000 nM | > 10000 nM | > 1000 nM | > 1 nM | > 10000 nM | > 1000 nM | 220 nM | > 10000 nM | > 10000 nM | 968 nM | 2000 nM | > 10000 nM
T-T (Esophageal Squamous Cell Carcinoma) | > 1000 nM | 115 nM | 341 nM | > 10000 nM | > 10000 nM | > 1000 nM | > 10000 nM | > 1000 nM | > 5000 nM | > 10000 nM | > 20000 nM | 350 nM | > 10000 nM | 29.3 nM | > 300 nM | > 10000 nM | > 10000 nM | > 10000 nM | > 10000 nM | > 300 nM | > 1000 nM | 1770 nM | > 1000 nM | > 3000 nM | > 10000 nM | > 1000 nM | > 1 nM | > 10000 nM | > 1000 nM | > 2000 nM | > 10000 nM | 2980 nM | > 10000 nM | > 10000 nM | > 10000 nM
VMRC-RCZ (Kidney Carcinoma) | > 1000 nM | > 300 nM | > 1000 nM | > 10000 nM | > 10000 nM | > 1000 nM | > 10000 nM | > 1000 nM | > 5000 nM | > 10000 nM | > 20000 nM | > 1000 nM | > 10000 nM | > 3000 nM | > 300 nM | > 10000 nM | > 10000 nM | > 10000 nM | > 10000 nM | > 300 nM | > 1000 nM | > 3000 nM | > 1000 nM | > 3000 nM | > 10000 nM | > 1000 nM | > 1 nM | > 10000 nM | > 1000 nM | > 2000 nM | > 10000 nM | > 10000 nM | > 10000 nM | > 10000 nM | > 10000 nM
